According to publication PMC10301922, “Anti-Oxidant, Anti-Mutagenic Activity and Safety Evaluation of Antrocin” (Toxics, 2023):
Where two headings read alike, the source gives them in different places.

What was measured:
[1] = test system: Salmonella typhimurium TA100
[2] = test system: Salmonella typhimurium TA98
[3] = test system: Salmonella typhimurium TA1535; test: Antimutagenicity test, TA1535
[4] = test system: Salmonella typhimurium TA98; test: Ames test (plate incorporation), TA98; conditions: TA98, with S9, positive reagent 5 μg/plate
[5] = test system: Salmonella typhimurium TA102; test: Ames test (plate incorporation), TA102; conditions: TA102, with S9, positive reagent 5 μg/plate
[6] = test system: Salmonella typhimurium TA1535; test: Ames test (plate incorporation), TA1535; conditions: TA1535, with S9, positive reagent 5 μg/plate
[7] = test system: Salmonella typhimurium TA1537; test: Ames test (plate incorporation), TA1537; conditions: TA1537, with S9, positive reagent 5 μg/plate
[8] = test system: CHO-K1 cells; conditions: with S9 (3 h), 25 μg/mL, positive control
Protocol: A chromosomal aberration test was performed to evaluate the potential for antrocin to induce structural chromosomal abnormalities in Chinese hamster ovary cells (CHO-K1 cells). The test followed the protocol in Genetic Toxicology Testing: A Laboratory Manual. CHO-K1 cells were obtained from the Bioresource Collection and Research Center (BCRC), and were cultured in Ham F-12 medium with 10% fetal bovine serum and 0.1% Penicillin–Streptomycin at 5% CO2 in a 37 °C incubator. […] Three experimental conditions were conducted: 3 h with and without S9 (short term), and 19 h without S9 (long term). […] CHO-K1 cells were cultured in 25T flasks, incubated with samples for 3 or 19 h with and without S9, and harvested at the time of 1.5 cell cycle lengths (about 21 h). Two hours before harvesting, 100 μL colcemid (10 μg/mL) was added to disrupt cell mitosis. Collected cells were then treated with 0.6% KCl solution and fixed with acetic acid–methanol (1:3) solution. After fixation, cells were stained with Diff-Quik on a glass slide. A total of 300 cells in metaphase per group were observed, and the number of chromosomal aberrations was recorded. The chromosomal aberration rate (%) was calculated using the following formula: (number of cells with aberrations/total number of cells examined) × 100. A Student’s t-test was used for statistical analysis, and a significant increase (p < 0.05) compared to the negative control indicated a positive response.

[9] = test system: ICR male mice; test: In vivo mammalian erythrocyte micronucleus test; conditions: for Mn-RETs/1000RETs (‰) / RETs/1000RBCs (‰): 60 mg/kg bw ip; for frequencies of micronuclei: positive control group (60 mg/kg ip)
[10] = test system: Sprague Dawley rats; conditions: rat, in vivo, po, 7.5 mg/kg
[11] = test system: Sprague Dawley rats; conditions: rat, in vivo, po, 7.5 mg/kg; remark: listed apart in the source
[12] = test system: Sprague Dawley rats; conditions: rat, in vivo, po, 7.5 mg/kg; remark: listed apart in the source
[13] = test system: Sprague Dawley rats; conditions: rat, in vivo, 7.5 mg/kg
[14] = test system: Wistar rats; parameters: method as in earlier work; conditions: 28-day oral; cited from earlier work
[15] = female, Sprague Dawley, po, 28 days
[16] = male, Sprague Dawley, po, 28 days

Nc1ccc2cc3ccccc3cc2c1 [2-AA, 2-aminoanthracene, reference compound]
Number of Revertant ([1]; TA100, with S9, positive reagent 5 μg/plate): 2099.7 ± 145.5 Colony/Plate
reverse mutants, times more than the negative control group ([2]; TA98, with S9, 25 μg/plate): about 275 times
Number of Revertant ([2]; TA98, with S9, positive reagent alone 25 μg/plate): 6055.0 ± 661.0 Colony/Plate
reverse mutants, times more than the negative control group ([3]; TA1535, with S9, 25 μg/plate): about 23 times
Number of Revertant ([3]; TA1535, with S9, positive reagent alone 25 μg/plate): 270.3 ± 7.5 Colony/Plate
Number of Revertant [4]: 1881.3 ± 434.2 Colony/Plate
Number of Revertant [5]: 1532.0 ± 204.2 Colony/Plate
Number of Revertant [6]: 535.0 ± 138.6 Colony/Plate
Number of Revertant [7]: 269.0 ± 21.9 Colony/Plate

O=P1(N(CCCl)CCCl)NCCCO1 (stereo not drawn) [Cyclophosphamide, cyclophosphamide, reference compound]
Frequency of Chromosomal Aberration (%) [8]: 15.3 ± 2.3%
Total Aberrations [8]: 46/300
Mn-RETs/1000RETs (‰) ([9]; 48 h): 22.9 ± 12.2 ‰
RETs/1000RBCs (‰) ([9]; 48 h): 3.6 ± 2.1 ‰
frequencies of micronuclei ([9]; 48 h): 3.6 ± 2.1 ‰
Mn-RETs/1000RETs (‰) ([9]; 72 h): 6.8 ± 3.7 ‰
RETs/1000RBCs (‰) ([9]; 72 h): 3.9 ± 2.1 ‰
frequencies of micronuclei ([9]; 72 h): 3.9 ± 2.1 ‰

CNC(=O)c1cc(Oc2ccc(NC(=O)Nc3ccc(Cl)c(C(F)(F)F)c3)cc2)ccn1 [Sorafenib, sorafenib]
BASO [10]: 0.1 ± 0.1%
GGT [11]: <1 U/L
TB [11]: <0.1 mg/dL
Brain [12]: 2.0 ± 0.1 g
Adrenal gland: Congestion, cortex, focal, slight; incidence [13, 15]: 1/5
Bone, femur: Hypertrophy, epiphysis, diffuse, slight to moderate/severe; incidence [13, 15]: 5/5
Kidney: Cast, tubule, focal, slight; incidence [13, 15]: 1/5
Kidney: Infarct, tubule, focal, slight; incidence [13, 15]: 1/5
Ovary: Increase, follicle, multifocal, moderate to moderate/severe; incidence [13, 15]: 4/4
Adrenal gland: Congestion, cortex, multifocal, slight; incidence [13, 16]: 1/5
Bone marrow, femur: Hypocellularity, diffuse, slight to moderate/severe; incidence [13, 16]: 3/5
Bone marrow, sternum: Hypocellularity, diffuse, moderate; incidence [13, 16]: 3/5
Bone, femur: Hypertrophy, epiphysis, diffuse, slight to moderate/severe; incidence [13, 16]: 5/5
Epididymis: Granuloma, spermatic, focal, moderate; incidence [13, 16]: 1/5
Heart: Infiltration, mononuclear cell, focal, minimal to slight; incidence [13, 16]: 1/5
Kidney: Cast, tubule, focal, minimal; incidence [13, 16]: 3/5
Spleen: Atrophy, red pulp, diffuse, slight to moderate; incidence [13, 16]: 5/5
Salivary gland, Sublingual lobe: histopathological lesions [13]: -
Aorta: histopathological lesions ([13]; po): -
Cervix: histopathological lesions ([13]; po): -
Coagulative gland: histopathological lesions ([13]; po): -
Esophagus: histopathological lesions ([13]; po): -
Eyes: histopathological lesions ([13]; po): -
Harderian gland: Infiltration, mononuclear cell, focal, minimal; incidence ([13]; po): -
Harderian gland: histopathological lesions ([13]; po): -
Heart: histopathological lesions ([13]; po): -
Intestine, large, Caecum: histopathological lesions ([13]; po): -
Intestine, large, Colon: histopathological lesions ([13]; po): -
Intestine, large, Rectum: histopathological lesions ([13]; po): -
Intestine, small, Duodenum: histopathological lesions ([13]; po): -
Intestine, small, Ileum: histopathological lesions ([13]; po): -
Intestine, small, Jejunum: histopathological lesions ([13]; po): -
Kidney: Cyst, tubule, focal, slight; incidence ([13]; po): -
Liver: Fatty change, multifocal, slight; incidence ([13]; po): -
Liver: histopathological lesions ([13]; po): -
Lung: histopathological lesions ([13]; po): -
Lymph node, Cervical: histopathological lesions ([13]; po): -
Lymph node, Mesenteric: histopathological lesions ([13]; po): -
Lymph node: histopathological lesions ([13]; po): -
Mammary gland: histopathological lesions ([13]; po): -
Optic nerve: histopathological lesions ([13]; po): -
Oviduct: histopathological lesions ([13]; po): -
Pancreas: histopathological lesions ([13]; po): -
Parathyroid gland: histopathological lesions ([13]; po): -
Pituitary: histopathological lesions ([13]; po): -
Prostate gland: Infiltration, mononuclear cell, focal, minimal to slight; incidence ([13]; po): -
Salivary gland, Mandibular lobe: histopathological lesions ([13]; po): -
Salivary gland: histopathological lesions ([13]; po): -
Sciatic nerve: histopathological lesions ([13]; po): -
Seminal vesicle: histopathological lesions ([13]; po): -
Skeletal muscle: histopathological lesions ([13]; po): -
Skin: histopathological lesions ([13]; po): -
Spinal cord: histopathological lesions ([13]; po): -
Spleen: histopathological lesions ([13]; po): -
Stomach: histopathological lesions ([13]; po): -
Testis: histopathological lesions ([13]; po): -
Thymus: histopathological lesions ([13]; po): -
Thyroid gland: histopathological lesions ([13]; po): -
Tongue: histopathological lesions ([13]; po): -
Trachea: histopathological lesions ([13]; po): -
Urinary bladder: histopathological lesions ([13]; po): -
Uterus: histopathological lesions ([13]; po): -
Vagina: histopathological lesions ([13]; po): -
dose above which abnormality was found (clinical observation, hematology, biochemistry, histopathology) [14]: above 25 mg/kg

[N-]=[N+]=[N-].[Na+] [sodium azide, reference compound]
Number of Revertant ([1]; TA100, without S9, positive reagent 5 μg/plate): 2223.0 ± 53.2 Colony/Plate
reverse mutants, times more than the negative control group ([3]; TA1535, without S9, 5 μg/plate): about 122 times
Number of Revertant ([3]; TA1535, without S9, positive reagent alone 5 μg/plate): 1313.0 ± 42.0 Colony/Plate
